Reference: PubChem BioAssay AID2305 (GlaxoSmithKline (GSK), 2010)

These compounds were tested on P. falciparum 3D7 growth, pLDH absorbance (assay: blood-stage malaria parasite growth potency – strain 3D7, dose response (AID 2305)).

| SMILES | IC50 [nM] |
| --- | --- |
| COc1cc(N)c(Cl)cc1C(=O)NC1CCC(NCC2CCCCC2)CC1 (stereo unspecified) | 430 |
| CS(=O)(=O)CCNCc1cccc(-c2ccc3c(Nc4cc(O)c(Cl)cc4F)ccnc3c2)c1 | 250 |
| CCOc1ccc2nc(NC(=O)c3csnn3)sc2c1 | 480 |
| CCCCCN1CCCC(CNS(=O)(=O)c2cccc(C(=O)Nc3ccc(C(F)(F)F)cc3)c2)C1 (stereo unspecified) | 830 |
| O=C(Nc1ccccc1Cl)N(Cc1cc(Cl)cc(Cl)c1)CC(O)COc1ccc(Cl)c(F)c1 (stereo unspecified) | 790 |
| COc1nc2c(CCN3CCC(NCc4ccc5c(c4)NCCO5)CC3)c(Cl)cnc2cc1F | 180 |
| Cc1cc(N2CCOCC2)nc2ccc(NC(=O)c3cccc([N+](=O)[O-])c3)cc12 | 890 |
| N/C(=N\c1cccc(Cc2ccc([N+](=O)[O-])cc2)n1)Nc1ccccc1 | 950 |
| Nc1ccncc1C(=O)NCCCCN1CCN(c2nsc3ccccc23)CC1 | 800 |
| CCOP(=O)(OCC)c1ccc(OC)c(-c2ccc[nH]2)c1 | 1190 |
| O=C(/C=C/c1ccc(Cl)c(Cl)c1)NCCCCCN1CCCC(CNS(=O)(=O)c2ccc(F)cc2)C1 (stereo unspecified) | 1160 |
| COc1nc2c(CCN3CCC(NCc4ccc5c(n4)NC(=O)CO5)CC3)c(Cl)cnc2cc1F | 420 |
| COc1cccc(C(=O)N2CCOC(CCN3CCC(c4ccccc4)CC3)(c3ccc(Cl)c(Cl)c3)C2)c1 (stereo unspecified) | 510 |
| COc1ccccc1NC(=O)Nc1ccc(-c2cccc(-c3nc4ccccc4[nH]3)c2)cc1 | 640 |
| CCOC(=O)CCCCOc1c(OC)cc(Cc2cnc(N)nc2N)cc1OC | 30 |
| NC(=O)c1ccccc1OCC(=O)Nc1cccc(-c2ccc(-c3nc4ccc(C(F)(F)F)cc4[nH]3)cc2)c1 | 650 |
| Cc1cc(C(=O)OCC(N)=O)c(C)n1-c1ccc(F)cc1 | 330 |
| CC(=O)Nc1ccc2[nH]cc(C3CCN(CCC4CCN(C(=O)/C=C/c5ccc(Cl)c(Cl)c5)CC4)CC3)c2c1 | 780 |
| Cc1cc2nc(-c3ccc(C(=O)NCc4cccc(C(F)(F)F)c4)cc3)[nH]c2cc1C | 810 |
| CS(=O)(=O)CCNC(=O)c1ccc(-c2cc3c(Nc4ccc5c(cnn5Cc5ccccc5)c4)ncnc3cn2)o1 | 1000 |
| O=C(CCCC(=O)Nc1ccc(C2=NCCN2)cc1)Nc1ccc(C2=NCCN2)cc1 | 110 |
| CC1CCN(CC[C@H]2CCCN2S(=O)(=O)c2cccc(NC(=O)c3cc4ccccc4s3)c2)CC1 | 830 |
| CCC(Cc1cnc2nc(N)nc(N)c2n1)c1ccc(C(=O)N[C@@H](CCC(=O)O)C(=O)O)cc1 (stereo partly specified) | 40 |
| CC(C)[C@@H]1c2ccc(O)cc2C[C@H]2C(=O)N(C3CCCCC3)C(=O)N21 | 880 |
| O=C(Nc1ccc(N2CCC(Nc3ccccn3)CC2)cc1)c1cnc(Cl)c(Cl)c1 | 1190 |
| O=C(Nc1cccc(CN2CCCN(CCc3ccccc3)CC2)c1)c1cc2ccccc2s1 | 1130 |

| SMILES | IC50 [nM] |
| --- | --- |
| O=c1cc(NCCC(CNCc2ccc(Br)o2)NCc2cc(Br)cc(Br)c2)[nH]c2ccccc12 (stereo unspecified) | 860 |
| OC1CCCN(Cc2ccc(-c3ccc(-c4nc5ccc(F)cc5[nH]4)cc3)cc2)C1 (stereo unspecified) | 850 |
| COc1ccc2nccc([C@@H](O)CN3CCC(NC(=O)c4cc5c(F)cc(F)cc5[nH]4)CC3)c2n1 | 1390 |
| CCOc1ncccc1CN1CCC(N2CCc3cc(NC(=O)c4ccco4)ccc32)C1 (stereo unspecified) | 760 |
| Cc1cc(NC(=O)Nc2cccc(Cl)c2Cl)c2ccccc2n1 | 740 |
| COc1ccc(-c2cccc(NC(=O)c3ccc(C#N)cc3)c2)cc1CNC(C)C | 810 |
| c1csc(-c2nc(N3CCCC3)ncc2-c2ccsc2)n1 | 210 |
| CN(C)CC(=O)Nc1cccc(Nc2nccc(NCC(O)c3ccccc3)n2)c1 (stereo unspecified) | 980 |
| O=C(/C=C/c1ccc(Cl)c(Cl)c1)N1CCC(CCCN2CCC(c3c[nH]c4ccccc34)CC2)CC1 | 710 |
| NC1=NC(Cc2ccccc2)(c2ccncc2)C(=O)N1CCCc1ccccc1 (stereo unspecified) | 940 |
| CC1N=C(N)N=C(N)N1OCc1ccccc1 (stereo unspecified) | 30 |
| Oc1ccc2nc(NCCCc3ccccc3)nc(NCCc3ccccc3)c2c1 | 290 |
| O=C(/C=C/c1ccc([N+](=O)[O-])cc1)N1CCC(NS(=O)(=O)c2cccc(C(F)(F)F)c2)CC1 | 850 |
| O=C(NC1CCC(CN2CCC(c3c[nH]c4ccccc34)CC2)CC1)c1cc2ccccc2s1 (stereo unspecified) | 730 |
| COc1cccc(C(=O)NCc2n[nH]c(=S)n2-c2ccc(Cl)c(Cl)c2)c1 | 170 |
| Cc1cccc2[nH]c(-c3cc(-c4cccc(Cl)c4)cnc3N)nc12 | 120 |
| C[C@H](Cc1ccc(CCc2ccc(C[C@@H](C)NC[C@H](O)c3cccc(Cl)c3)cc2)cc1)NC[C@H](O)c1cccc(Cl)c1 | 940 |
| CCc1ccc(CN2CCC(NC(=O)c3ccc(-c4ccccc4F)s3)CC2)cc1 | 1490 |
| CN(C)CCN(C)C(=O)c1cc(-c2ccncc2)c(-c2ccc(Cl)c(O)c2)o1 | 1050 |
| Cc1cc(C(=O)NC2CCN(CC3(c4ccc(Cl)cc4)CCC3)CC2)on1 | 90 |
| CN(C)CCCNCc1ccc(-c2ccc(CNCCc3ccccc3)cc2)cc1 | 990 |
| CCOc1ccc(Nc2nc(N)c3ccccc3n2)cc1 | 1150 |
| COc1ccc2c(c1)CC(NCc1ccc(-c3ccc4nc[nH]c4c3)cc1)C2 (stereo unspecified) | 880 |
| COc1cc(NC(=O)Nc2cc(C)nc3ccccc23)cc(OC)c1 | 400 |
| COc1ccc(CC(C)NCC(O)c2cccc(Br)c2)cc1 (stereo unspecified) | 960 |
| Oc1ccc(CCNCCCCCCNCCc2ccc(Br)cc2)cc1O | 1020 |

| SMILES | IC50 [nM] |
| --- | --- |
| O=c1cc(NCCCNCc2csc(Br)c2Sc2ccc(Cl)cc2)[nH]c2ccccc12 | 850 |
| CN1CCCC(CN2CCN(Cc3ccc(-c4ccc(-c5nc6ccc(F)cc6[nH]5)s4)cc3)CC2)C1 (stereo unspecified) | 130 |
| O=C(NC1CCN(CCCc2ccccc2)CC1)c1ccc(-c2cccc(C(F)(F)F)c2)s1 | 890 |
| CCCc1ccc(NC(=O)c2cccc(CN3CCCN(Cc4cccc(O)c4)CC3)c2)cc1 | 750 |
| NC(N)=NCCCN(Cc1ccccc1)c1ccc(Cl)cc1 | 560 |
| CCCC(C)Nc1nc(C)cc(N[C@@H](CC(C)C)C(=O)NCc2ccc(C)cc2)n1 (stereo partly specified) | 1010 |
| C=CCOc1ccccc1CNCC(O)c1cccc(C(F)(F)F)c1 (stereo unspecified) | 840 |
| COc1ccc2nccc(N3CCC(SCCNCc4ccc5c(n4)NC(=O)CO5)C3)c2n1 (stereo unspecified) | 800 |
| CN1CCN(c2cccc(-c3nnc(-c4ccc(OCC(=O)NCc5cccc(C(F)(F)F)c5)c([N+](=O)[O-])c4)o3)c2)CC1 | 960 |
| Cn1c(CN2CCC(N3CCc4cc(NC(=O)c5ccco5)ccc43)C2)cc2ccccc21 (stereo unspecified) | 880 |
| CC(=O)N/N=C/[C@H](CCc1ccccc1)NC(=O)[C@H](CC(C)C)NC(=O)c1cccc(OCCN2CCOCC2)c1 | 240 |
| CC(=O)Nc1ccc(C(=O)Nc2ccc(-c3cccc(-c4nc5ccc(F)cc5[nH]4)c3)cc2)cn1 | 230 |
| CN1CCC(Oc2cc(NC(=O)Nc3ccc(-c4ccncc4)c(Cl)c3)ccc2Cl)CC1 | 530 |
| CCCCc1ccc2[nH]cc(C3=CCN(C)CC3)c2c1Br | 630 |
| O=C(NCc1cccc(F)c1)Nc1cccc(-c2cccc(-c3nc4ccc(C(F)(F)F)cc4[nH]3)c2)c1 | 330 |
| CCc1cc2c3c(N)nc(N)nc3ccc2n1C(CC)CC | 60 |
| O=C(NCCc1ccccc1)N(Cc1cccc(-c2ccc(CNCCc3ccccc3)cc2)c1)C1CCN(Cc2ccccc2)CC1 | 610 |
| Nc1c2c(nc3ccc(C(=O)Nc4ccccc4)cc13)CCCC2 | 710 |
| C=C(C)Cn1cc(C2CCN(CCN3CCC(CNC(=O)c4ccc(-c5ccc(C#N)cc5)cc4)CC3)CC2)c2ccccc21 | 430 |
| Cc1[nH]c(C)c(-c2ccc(-c3ccc(C(F)F)cc3)nc2)c(=O)c1Cl | 240 |
| C=CCOC(=O)N1CCC(CNCc2cccc(-c3cccc(-c4nc5c(C)cccc5[nH]4)c3)c2)C1 (stereo unspecified) | 110 |
| COc1cc(Cc2cnc(N)nc2N)ccc1OCc1ccc(F)c(F)c1 | 910 |
| COc1ccc(O)c(Cc2cnc3nc(N)nc(N)c3c2C)c1 | 40 |
| N#Cc1ccc(-c2ccc(C(=O)Nc3ccc4c(c3)CCN(C3CCC3)CC4)nc2)cn1 | 1160 |
| c1cc(CN2CCN(c3ccncc3)CC2)cc(-c2ccc(-c3nc4ccccc4[nH]3)cc2)c1 | 150 |
| CCOc1ccc(N2CCN(CCCCNC(=O)c3ccc(NC(=O)c4ccc(Cl)cc4)cc3)CC2)c(OCC)c1 | 570 |

| SMILES | IC50 [nM] |
| --- | --- |
| O=C(CCn1cncn1)N1CCCC(c2[nH]c3ccccc3c2-c2ccncc2)C1 (stereo unspecified) | 800 |
| Fc1ccc2nc(-c3ccc(-c4cccc(CN5CCN(CCN6CCOCC6)CC5)c4)cc3)[nH]c2c1 | 140 |
| Cc1nc(NC2=NCN(CCCN3CCOCC3)CN2)nc2c(C)cccc12 | 1130 |
| Nc1nc(Nc2cccc(O)c2)nc2ccccc12 | 790 |
| COc1cc2nc(N3CCC(CNC(=O)/C=C/c4ccccc4F)CC3)nc(N)c2cc1OC | 580 |
| Clc1ccc(CNCCCCCCCNCc2ccc(Cl)c(Cl)c2)cc1Cl | 370 |
| Cc1[nH]c(C)c(-c2ccc(Oc3cccc(OC(F)(F)F)c3)cc2)c(=O)c1Br | 20 |
| Clc1ccc2c(NCc3ccc4c(c3)OCO4)ccnc2c1 | 270 |
| O=C(Nc1cccc(CN2CCCN(Cc3ncc[nH]3)CC2)c1)c1ccc2ccccc2c1 | 630 |
| Cc1ccc(F)cc1S(=O)(=O)NCC(C)c1ccc(NC(=O)Nc2cccc(F)c2)cc1 (stereo unspecified) | 970 |
| CCN(CC)CCNc1ccnc2c3ccccc3n(C)c12 | 240 |
| COC(=O)c1cccc(N2CCN(CCCNC(=O)/C(=C/C=C/c3cc4cc(Cl)c(Cl)cc4[nH]3)OC)CC2)c1 | 670 |
| COc1ccccc1CCCN1C(=O)C(c2ccccc2)(c2ccccc2)N=C1N | 270 |
| Cc1ccc(-c2cncc(-c3cc(NC4CCN(Cc5ccccc5)CC4)nc(-c4ccccc4)n3)c2)cc1 | 720 |
| O=C(NCCCCCN1CCCN(C(=O)Nc2ccc(F)c(C(F)(F)F)c2)CC1)[C@@H]1C[C@H]1c1ccc(Cl)c(Cl)c1 | 1030 |
| c1ccc(CCNCc2ccc(-c3cccc(-c4nc5ccccc5[nH]4)c3)cc2)nc1 | 620 |
| COc1cc(Cc2cnc(N)nc2N)ccc1OCc1cccc(Oc2ccccc2)c1 | 1330 |
| Cc1cccc(C(=O)Nc2ccc(N3CCCN(Cc4cccc(O)c4)CC3)cc2)c1 | 1420 |
| CC1(C)N=C(N)N=C(N)N1OCc1cccc(C#N)c1 | 10 |
| CCCc1cc(OC)c(C[C@@H]2c3cc(O)c(Cl)cc3CCN2C)cc1OC | 720 |
| Cc1ccc(Nc2cc(C)nn2-c2nc(C)cc(=O)[nH]2)cc1 | 860 |
| O=c1cc(NCCCNCc2cccc(OC(F)(F)F)c2)[nH]c2ccccc12 | 850 |
| NC1=NC(c2ccccc2)N(c2ccc(Cl)c(Cl)c2)C(N)=N1 (stereo unspecified) | 10 |
